Read-outs that look alike come from different tables or passages of the source.
Experiments:
[1] = system: disseminated Candida infections; settings: cited from earlier work; for fraction of patients nonresponsive to treatment: patients with disseminated Candida infections
[2] = system: wild-type C. albicans strain (SC5314); assay: Antifungal susceptibility testing (dose-response growth, OD600); assay type: cell-based, Candida albicans; settings: for C. albicans growth inhibition (in words): YNB medium, pH 5 and pH 7; for MIC: Candida albicans, SC5314, YNB medium buffered to either pH 5 or 7
Protocol: A wild-type C. albicans strain (SC5314) was seeded at 1 × 10^4 cells/ml into YNB medium without folate or PABA with the indicated supplements and increasing concentrations of MTX. After 48 h of incubation at 30°C, growth was quantified as the OD600 value and expressed as a percentage of the value for the DMSO-treated control. The values presented here are the average of two replicates and are representative of two independent experiments.
Approximately 1 × 10^4 cells/ml of a wild-type C. albicans strain was seeded into a 96-well plate with increasing concentrations of MTX in YNB pH 5, YNB pH 7, and RPMI pH 7 media. After 48 h, the OD600 was measured and expressed as a percentage of the value for the DMSO-treated control. The results presented here are the averages of two replicates and are representative of two independent experiments.
Stock solutions of MTX were prepared at 10 mM in dimethyl sulfoxide (DMSO) and diluted as needed in the same solvent. […] The final concentration of DMSO was 0.5% for all treatments. Plates were then incubated at 30°C before growth was quantified after 24 and 48 h by measuring the OD600 using a Cytation 5 plate reader (Bio-Tek Instruments, Inc.). MIC50 values were identified visually using the CLSI antifungal susceptibility assay and then confirmed by quantifying growth by the OD600 value. The growth of each strain at each drug concentration was then expressed relative to that of the DMSO-alone control. The susceptibility to MTX at the highest concentration at each pH was compared to that of the other pH values using a two-tailed Student's t test.

[3] = target: T1, Candida albicans dihydrofolate reductase (Candida albicans, UniProt P22906); assay: biochemical; assay type: biochemical; settings: for inhibition of C. albicans DHFR (in words): dose-response experiments, purified enzyme
T1 construct: The optimized DFR1 ORF was then cloned into pET15b; 6xHis; host or cells: Escherichia coli
T1 sequence (P22906 1-192): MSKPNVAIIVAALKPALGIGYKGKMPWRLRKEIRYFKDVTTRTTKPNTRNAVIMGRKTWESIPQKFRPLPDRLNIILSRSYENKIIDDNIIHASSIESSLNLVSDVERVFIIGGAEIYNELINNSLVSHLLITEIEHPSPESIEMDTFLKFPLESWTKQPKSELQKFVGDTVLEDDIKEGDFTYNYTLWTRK
Source text: Finally, we tested a panel of additional antifolates to examine the relationship between their antifungal potencies and capacities to inhibit C. albicans DHFR. The enzyme was purified using a 6×His tag ([45], [46]), and activity was detected by measuring the conversion of NADPH to NADP^+ at an optical density at 340 nm (OD340) ([34]).
The C. albicans DFR1 open reading frame (ORF) sequence was retrieved from the Candida Genome Database ([68]) and was codon optimized for expression in Escherichia coli. The optimized DFR1 ORF was then cloned into pET15b ([69]) to allow propagation and expression of C. albicans Dfr1p in E. coli. Cultures of E. coli transformed with pET15b-CaDfr1p (Biomatik) were grown overnight in LB plus ampicillin. The culture was diluted 1:100 into fresh medium and incubated at 35°C for 6 h; then Dfr1p expression was induced with isopropyl-β-D-thiogalactopyranoside (IPTG) at a final concentration of 0.5 mM for 16 h. Cells were collected by centrifugation and resuspended in binding buffer (6 g/liter Tris base, pH 7.5, 8.8 g/liter NaCl, 1 mM dithiothreitol [DTT], 0.68 g/liter imidazole, 5% glycerol, 1× protease inhibitor). Resuspended cells were lysed with 1 mg/ml chicken white lysozyme (Sigma) for 60 min at 4°C. Then, Triton X-100 and NaCl were added to 0.1% and 0.5 M, respectively. The lysate was then centrifuged, and the supernatant was collected. The supernatant was added to nickel resin beads (Sigma) and incubated at 4°C for 30 min with rotation. The buffer was removed, and the beads were washed twice with binding buffer. Then the beads were suspended in elution buffer (6 g/liter Tris base, pH 7.5, 8.8 g/liter NaCl, 1 mM DTT, 34 g/liter imidazole, 5% glycerol) and incubated at 4°C for 30 min. The elution was removed and then run on SDS-PAGE gels (Sigma) to confirm the presence of CaDfr1p. SDS-PAGE gels were run according to the manufacturer’s protocol.
The enzymatic activity of C. albicans Dfr1p was determined using a dihydrofolate reductase assay (Sigma). The manufacturer’s protocol was adapted to the fungal enzyme by scaling down the volume to 100-μl reaction mixtures with 88 μl of buffer, 6 μl of a 1 mM NADPH stock, 5 μl of a 1 mM DHF stock, and 1 μl of 3-mg/ml purified enzyme. The loss of NADPH was quantified as the decrease in absorption at the OD340 over a 30-min time frame. The IC50 was calculated by converting the change in the OD340 value per minute into the amount of THF produced per minute and then compared to the level in an untreated control.

PTET98-DFR1 strain [4] = assay: Mouse model of disseminated candidiasis; assay type: in vivo, BALB/c mice
Protocol: Next, we determined if DFR1 expression is essential for C. albicans virulence in a mammalian host using a mouse model of disseminated candidiasis. Female BALB/c mice were split into two treatment groups: group 1 was treated with doxycycline in a gel food formulation from 72 h before infection and for the duration of the experiment; group 2 was mock treated using unsupplemented gel food. The mice were then infected with ∼5 × 10^5 yeast cells of the PTET98-DFR1 strain via the lateral tail vein, and their health was monitored for 12 days. […] All mice in the mock-treated group succumbed to the infection by day 7 (Fig. 5A), confirming the virulence of the PTET98-DFR1 strain under nonrepressing conditions. […] On day 12, surviving animals were euthanized, kidneys were extracted and homogenized, and levels of fungal colonization were determined as CFU counts. […] To determine if suppression of Dfr1p activity is sufficient to resolve an established infection, a second experiment was performed in which mice were infected with the PTET98-DFR1 strain, and doxycycline treatment was initiated 24-h postinfection. […] Furthermore, C. albicans is unable to scavenge sufficient sources of folate to survive within mammalian tissue, and de novo biosynthesis is required. Indeed, the antifungal efficacy achieved upon repressing Dfr1p expression appears to be similar to that attained upon suppression of Erg11p expression. Accordingly, DHFR and likely other FOL pathway enzymes can provide potentially efficacious targets for antifungal development.
FIG 5 Dfr1p is essential for Candida albicans virulence in a mouse model of disseminated candidiasis. Groups of BALB/c mice (n = 6) were inoculated with ∼5 × 10^5 CFU of either the dfr1Δ/PTET98-DFR1 strain or the erg11Δ/PTETO-ERG11 strain via the lateral tail vein injections. The Erg11p strain was included to compare the antifungal efficacy of targeting Dfr1p with a previously validated target. The mice were monitored three times daily for 12 days, and those showing signs of distress were humanely euthanized. Mice were treated with 2 mg/g doxycycline (DOX) or mock treated with vehicle alone provided in a gel food formulation from 72 h prior to infection and throughout the duration of the experiment. […].
All animal experiments were done according to protocols approved by the University of Tennessee Institutional Animal Care and Use Committee. Groups of 6- to 8-week-old female BALB/c mice (Charles River Laboratories) were randomly assigned to one of three treatment groups 3 days before infection. Group 1 (minus doxycycline) was provided 20 g of DietGel (clear H2O) per day, per cage of 4 mice, while group 2 (plus doxycycline) was provided the same diet supplemented with 2 mg/ml of doxycycline hyclate. Group 3 (posttreatment) mice were given the DietGel without doxycycline until 24 h after infection and were administered 10 mg/kg of doxycycline through oral gavage at […], 24, and 36 h postinfection. Treatment was maintained daily for the duration of the experiment (up to 12 days postinfection). Each C. albicans strain was grown overnight in YPD cultures at 30°C (200 rpm). Cells were washed twice in sterile endotoxin-free phosphate-buffered saline (PBS), and cell density was determined using a hemocytometer. […] Mice were monitored for 12 days, and those showing distress were euthanized. Survival data were plotted on a Kaplan-Meier curve and analyzed by a log rank (Mantel-Cox) test using GraphPad Prism, version 8.00. […]

PTET98-DFR1 strain [5] = assay: Passaging of doxycycline-repressible strain in fetal bovine serum; assay type: cell-based; settings: Candida albicans, read-out: growth inhibition
Protocol: FIG 2 Dfr1p is essential for Candida albicans growth in vitro. A dfr1Δ/PTETO98-DFR1 strain was sequentially passaged in YPD broth (A), YNB broth (B), or fetal bovine serum (C), each supplemented with 5 μg/ml doxycycline (DOX). Following inoculation at approximately 5 × 10^5 cells/ml, each culture was incubated at 30°C for 24 h, and growth was measured after 24 h as the OD600 value. Relative growth was then expressed as a percentage of the untreated control, i.e., without doxycycline. The values presented here are representative of two independent experiments.
A combination of dTMP, adenine, histidine, and methionine, each of which requires folate for its biosynthesis, is sufficient to partially restore S. cerevisiae growth following treatment with antifolates ([36]). However, these supplements were not sufficient to restore C. albicans growth in the presence of MTX (Fig. 3). […] Finally, we examined if C. albicans was able to scavenge sufficient folates or folate-dependent metabolites from blood serum to negate the need for de novo biosynthesis. The PTET98-DFR1 strain was passaged for 3 days in 100% fetal bovine serum (FBS) with or without doxycycline. In the first passage, doxycycline inhibited growth by ∼60%, with increasing growth inhibition seen in subsequent subcultures (Fig. 2C). […]

[6] = doxycycline treatment initiated 24-h postinfection

**Q.** Which “fraction of patients nonresponsive to treatment” value (from here on “fraction”) [1] does the source give for `OC(Cn1cncn1)(Cn1cncn1)c1ccc(F)cc1F` [fluconazole] here?
**A.** approximately one-third

**Q.** For `C[C@@H]1[C@H](O)[C@@H](C)/C=C/C=C/C=C/C=C/C=C/C=C/C=C/[C@H](O[C@@H]2O[C@H](C)[C@@H](O)[C@H](N)[C@@H]2O)C[C@@H]2O[C@](O)(C[C@@H](O)C[C@@H](O)[C@H](O)CC[C@@H](O)C[C@@H](O)CC(=O)O[C@H]1C)C[C@H](O)[C@H]2C(=O)O` [amphotericin B], which favorable response rate ([1]; patients with disseminated candidiasis) is on record?
**A.** 62%

**Q.** With `CCc1nc(N)nc(N)c1-c1ccc(Cl)cc1` [Pyrimethamine, pyrimethamine] as the compound, how does the “C. albicans growth inhibition (in words)” value [2] read?
**A.** failed to inhibit C. albicans growth at either pH

**Q.** What about the IC50 [3] of the same compound?
**A.** 100 nM

**Q.** What about the “inhibition of C. albicans DHFR (in words)” value [3] of the same compound?
**A.** inhibited C. albicans DHFR activity

**Q.** For `Nc1nc2[nH]cc(CCc3ccc(C(=O)N[C@@H](CCC(=O)O)C(=O)O)cc3)c2c(=O)[nH]1` [Pemetrexed, pemetrexed], which “C. albicans growth inhibition (in words)” value [2] is on record?
**A.** antifungal activity at pH 5 but not at pH 7

**Q.** What about the IC50 [3] of the same compound?
**A.** 1000 nM

**Q.** What about the “inhibition of C. albicans DHFR (in words)” value [3] of the same compound?
**A.** inhibited C. albicans DHFR activity

**Q.** With `COc1cc(Cc2cnc(N)nc2N)cc(OC)c1OC` [Trimethoprim, trimethoprim] as the compound, how does the MIC [2] read?
**A.** > 25 µM

**Q.** For `[H]/N=C(\N/C(=N/[H])Nc1ccc(Cl)cc1)NC(C)C` [Proguanil, proguanil], which MIC [2] is on record?
**A.** > 25 µM

**Q.** What about the “inhibition of C. albicans DHFR (in words)” value [3] of the same compound?
**A.** lacked activity

**Q.** What about the IC50 ([3]; purified C. albicans DHFR (6×His tag), read-out: IC50) of the same compound?
**A.** > 10000 nM

**Q.** Which “fraction” value [1] does the source give for `C[C@@H](c1nc(-c2ccc(C#N)cc2)cs1)[C@](O)(Cn1cncn1)c1cc(F)ccc1F` [isavuconazole] here?
**A.** approximately one-third

**Q.** For `C[C@H]1c2cccc(O)c2C(=O)C2=C(O)[C@]3(O)C(=O)C(C(N)=O)=C(O)[C@@H](N(C)C)[C@@H]3[C@@H](O)[C@@H]21` [doxycycline], which “kidney fungal colonization (CFU) on day 12” value (PTET98-DFR1 strain [4]; doxycycline from 72 h before infection) is on record?
**A.** 5 of the 8 surviving mice had undetectable levels of fungal colonization

**Q.** What about the survival (PTET98-DFR1 strain [4]; doxycycline in gel food from 72 h before infection, monitored 12 days) of the same compound?
**A.** all doxycycline-treated mice survived for the duration of the experiment

**Q.** What about the “kidney fungal colonization at end of experiment” value (PTET98-DFR1 strain [4]; [6]) of the same compound?
**A.** Half of these mice had undetectable levels of fungal colonization

**Q.** What about the “time to resolution of initial symptoms” value (PTET98-DFR1 strain [4]; [6]) of the same compound?
**A.** ≤ 6 days

**Q.** And the survival (PTET98-DFR1 strain [4]; doxycycline treatment initiated 24-h postinfection, to day 12 postinfection)?
**A.** all mice survived the duration of the experiment

**Q.** What about the inhibition at 5 µg/mL (PTET98-DFR1 strain [5]) of the same compound?
**A.** ~60%

**Q.** For `C[C@@H](c1ncncc1F)[C@](O)(Cn1cncn1)c1ccc(F)cc1F` [voriconazole], which “fraction” value [1] is on record?
**A.** approximately one-third
